The values below are quoted from earlier work in patent US20070232813A1, “Substituted Cyclohexadienals - Syntheses and Applications” (priority 2006, published 2007).

Data set [1] relates to Roseobacter sp. As to conditions: at 100 μg, agar diffusion assay.
The subject of data set [2] is Sulfitobacter sp. As to conditions: at 100 μg, agar diffusion assay. (In general: A growth-free zone around the sample is the usual read-out of agar diffusion tests.)

Regarding `CC(C)=CCCC1=CC=C(C=O)C(C)(CCC=C(C)C)C1` (centres unmarked) [citral dimer B, 6-Methyl-4,6-bis-(4-methyl-pent-3-enyl)-cyclohexa-1,3-dienecarbaldehyde], the “inhibition (anti-bacterial activity against Roseobacter sp.)” value in data set [1] is recorded as 0.5 cm. In addition, the “inhibition (anti-bacterial activity against Sulfitobacter sp.)” value in data set [2] was 1.0 cm.
